Test results reported in PMC10814857, “Functional Classification and Interaction Selectivity Landscape of the Human SH3 Domain Superfamily” (Cells, 2024).
Where “and” joins values, the source holds several entries; their conditions need not be identical. Equal entries are not always repeated. Peptide text beside a SMILES is read from it.

Assays:
Test in all cases: Fluorescence polarization SH3 domain-PRP binding
Conditions in all cases: FP, 0.2 µM fluorescein-labeled peptide, SH3 domain 0-200 µM, Tris/HCl pH 7.5, 25 °C, quadratic fit
[1] = molecular target: T1, ITSN1-2 SH3 domain (aa 913-971) (Homo sapiens, UniProt Q15811)
T1 construct: 913-971; GST (N); made in house; host or cells: Escherichia coli CodonPlus, Rosetta, BL21(DE3)
T1 sequence (Q15811 913-971): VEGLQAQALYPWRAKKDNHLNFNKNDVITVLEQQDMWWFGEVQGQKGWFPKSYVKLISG
Procedure: (§1) The interaction between fluorescein-labeled proline-rich peptides (0.2 µM) and increasing concentrations of SH3 domains (ranging from 0 to 200 µM) was measured in a buffer (containing 30 mM Tris/HCl (pH 7.5), 5 mM MgCl2, and 3 mM DTT at 25 °C) in a total volume of 200 µL using a Fluoromax 4 fluorimeter in polarization mode and a quartz glass fluorescence cuvette (Hellma Ultra-Micro Cuvette 105.250-QS, Thermo Fisher Scientific, Waltham, MA USA). Excitation was performed at 470 nm and emission was measured at 560 nm. Dissociation constants (Kd) were determined by fitting the concentration-dependent binding curve to a quadratic ligand binding equation.
(§2) Fluorescence polarization measurements were performed to determine the binding affinities of SH3 domain–PRP interaction pairs from the dot blot analysis. SH3 proteins were titrated at increasing concentrations against fluorescent PRPs, which were kept at a constant concentration of 0.2 µM. GRB2-2^W193K, which is defective in the binding of PRPs such as RP1, was used as a negative control as previously described. […] The resulting data (Figure S6) allowed the evaluation of equilibrium dissociation constants (Kd) for 45 interactions between the SH3 domains and the PRPs (Figure 2B; Table S6).
(§3) Figure S6. Interactions of the SH3 domains with fluorescent PRPs measured by fluorescence polarization.
(§4) Fluorescent peptides (0.2 µM) were titrated with increasing concentrations of the corresponding SH3 domains.
(§5) GRB2-2W193K, defective in the binding of PRPs such as RP1, was used as a negative control as previously described. The x-axis represents SH3 domain concentrations as GST fusion proteins in µM, while the y-axis represents fluorescence polarization. The equilibrium dissociation constants (Kd) for the respective measurements were determined by fitting the titration curves to a quadratic ligand-binding equation (solid lines). All Kd values are […]
(§6) Error bars are derived from the fitting errors.
(§7) (1 picture or pasted object on this page, not shown here)

[2] = molecular target: T2, ARHGAP12 SH3 domain (aa 12-74) (Homo sapiens, UniProt Q8IWW6)
T2 construct: 12-74; GST (N); made in house; host or cells: Escherichia coli CodonPlus, Rosetta, BL21(DE3)
T2 sequence (Q8IWW6 12-74): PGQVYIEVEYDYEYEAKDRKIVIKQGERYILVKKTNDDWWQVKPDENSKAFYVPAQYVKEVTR
Procedure: as §1, §2, §3, §4, §5, §6, §7

[3] = molecular target: T3, ABL2 SH3 domain (aa 107-167) (Homo sapiens, UniProt P42684)
T3 construct: 107-167; GST (N); made in house; host or cells: Escherichia coli CodonPlus, Rosetta, BL21(DE3)
T3 sequence (P42684 107-167): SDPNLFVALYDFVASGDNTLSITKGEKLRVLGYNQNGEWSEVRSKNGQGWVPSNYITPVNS
Procedure: as §1, §2, §3, §4, §5, §6, §7

[4] = molecular target: T4, BIN1 SH3 domain (aa 520-593) (Homo sapiens, UniProt O00499)
T4 construct: 520-593; GST (N); made in house; host or cells: Escherichia coli CodonPlus, Rosetta, BL21(DE3)
T4 sequence (O00499 520-593): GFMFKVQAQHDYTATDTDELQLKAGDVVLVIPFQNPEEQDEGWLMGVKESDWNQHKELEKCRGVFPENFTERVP
Procedure: as §1, §2, §3, §4, §5, §6, §7

[5] = molecular target: T5, ITSN1-3 SH3 domain (aa 1002-1060) (Homo sapiens, UniProt Q15811)
T5 construct: 1002-1060; GST (N); made in house; host or cells: Escherichia coli CodonPlus, Rosetta, BL21(DE3)
T5 sequence (Q15811 1002-1060): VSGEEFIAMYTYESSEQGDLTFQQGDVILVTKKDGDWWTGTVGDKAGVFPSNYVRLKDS
Procedure: as §1, §2, §3, §4, §5, §6, §7

[6] = molecular target: T6, DLG2 SH3 domain (aa 536-606) (Homo sapiens, UniProt Q15700)
T6 construct: 536-606; GST (N); made in house; host or cells: Escherichia coli CodonPlus, Rosetta, BL21(DE3)
T6 sequence (Q15700 536-606): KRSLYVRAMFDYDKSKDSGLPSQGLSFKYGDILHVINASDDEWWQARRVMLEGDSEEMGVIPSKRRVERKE
Procedure: as §1, §2, §3, §4, §5, §6, §7

[7] = molecular target: T7, CRK-1 SH3 domain (aa 132-192) (Homo sapiens, UniProt P46108)
T7 construct: 132-192; GST (N); made in house; host or cells: Escherichia coli CodonPlus, Rosetta, BL21(DE3)
T7 sequence (P46108 132-192): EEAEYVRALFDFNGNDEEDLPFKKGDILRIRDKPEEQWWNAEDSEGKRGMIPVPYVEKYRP
Procedure: as §1, §2, §3, §4, §5, §6, §7

[8] = molecular target: T8, GRB2-1 SH3 domain (aa 1-58) (Homo sapiens, UniProt P62993)
T8 construct: 1-58; GST (N); made in house; host or cells: Escherichia coli CodonPlus, Rosetta, BL21(DE3)
T8 sequence (P62993 1-58): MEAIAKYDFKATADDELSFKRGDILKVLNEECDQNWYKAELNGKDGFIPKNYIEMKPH
Procedure: as §1, §2, §3, §4, §5, §6, §7

[9] = molecular target: T9, GRB2-2 SH3 domain (aa 158-215) (Homo sapiens, UniProt P62993)
T9 construct: 158-215; GST (N); made in house; host or cells: Escherichia coli CodonPlus, Rosetta, BL21(DE3)
T9 sequence (P62993 158-215): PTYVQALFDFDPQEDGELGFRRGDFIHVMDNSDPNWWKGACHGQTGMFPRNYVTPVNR
Procedure: as §1, §2, §3, §4, §5, §6, §7

[10] = molecular target: T10, ARHGEF30 (OBSCN) SH3 domain (aa 5600-5667) (Homo sapiens, UniProt Q5VST9)
T10 construct: 5600-5667; GST (N); made in house; host or cells: Escherichia coli CodonPlus, Rosetta, BL21(DE3)
T10 sequence (Q5VST9 5600-5667): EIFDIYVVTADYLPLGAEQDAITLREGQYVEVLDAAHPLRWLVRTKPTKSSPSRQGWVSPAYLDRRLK
Procedure: as §1, §2, §3, §4, §5, §6, §7

[11] = molecular target: T11, ABI1 SH3 domain (aa 446-505) (Homo sapiens, UniProt Q8IZP0)
T11 construct: 446-505; GST (N); made in house; host or cells: Escherichia coli CodonPlus, Rosetta, BL21(DE3)
T11 sequence (Q8IZP0 446-505): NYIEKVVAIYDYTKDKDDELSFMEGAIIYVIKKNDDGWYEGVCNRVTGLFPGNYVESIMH
Procedure: as §1, §2, §3, §4, §5, §6, §7

[12] = molecular target: T12, ITSN1-1 SH3 domain (aa 740-806) (Homo sapiens, UniProt Q15811)
T12 construct: 740-806; GST (N); made in house; host or cells: Escherichia coli CodonPlus, Rosetta, BL21(DE3)
T12 sequence (Q15811 740-806): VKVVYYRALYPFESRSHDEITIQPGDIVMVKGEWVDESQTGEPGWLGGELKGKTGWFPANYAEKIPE
Procedure: as §1, §2, §3, §4, §5, §6, §7

NPHP1 SH3 domain = molecular target: T13, NPHP1 SH3 domain (Homo sapiens, UniProt O15259)
T13 construct: GST (N); made in house; host or cells: Escherichia coli CodonPlus, Rosetta, BL21(DE3)
T13 sequence (O15259 152-212 limits assumed): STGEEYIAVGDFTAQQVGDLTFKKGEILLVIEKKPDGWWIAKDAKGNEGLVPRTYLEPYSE
Procedure, shortened: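 Kd values derive from fitting polarization titration curves to a quadratic ligand-binding equation. Constant 0.2 µM fluorescein-PRP was mixed with rising GST–SH3 domain levels up to 200 µM in Tris/HCl pH 7.5 buffer containing MgCl2 and DTT, at 25 °C.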

Row | SMILES | Kd [1] [µM] | Kd [2] | Kd [3] [µM] | Kd [4] [µM] | Kd [5] [µM] | Kd [6] [µM] | Kd [7] [µM] | Kd [8] [µM] | Kd [9] [µM] | Kd [10] [µM] | Kd [11] [µM] | Kd [12] [µM] | Kd (NPHP1 SH3 domain) [µM]
1 | C[C@H](N)C(=O)N[C@@H](Cc1ccccc1)C(=O)N[C@@H](Cc1ccccc1)C(=O)N1CCC[C@H]1C(=O)N[C@@H](CC(N)=O)C(=O)N[C@@H](CO)C(=O)N1CCC[C@H]1C(=O)N[C@@H](CO)C(=O)N1CCC[C@H]1C(=O)N[C@@H](Cc1ccccc1)C(=O)N[C@H](C(=O)N1CCC[C@H]1C(=O)N1CCC[C@H]1C(=O)N1CCC[C@H]1C(=O)N1CCC[C@H]1C(=O)N[C@@H](CCC(N)=O)C(=O)N[C@H](C(=O)N1CCC[C@H]1C(=O)N[C@@H](CO)C(=O)N1CCC[C@H]1C(=O)N[C@@H](Cc1c[nH]cn1)C(=O)NCC(=O)N[C@H](C(=O)O)[C@@H](C)O)[C@@H](C)O)[C@@H](C)O [Peptide P7] (H-AFFPNSPSPFTPPPPQTPSPHGT-OH) | > 200 | 0.2 µM and < 0.5 µM | 67.3 | 12 | > 200 | 58.5 | 18.1 | > 200 | > 200 | 8.9 | > 200 | > 200 | > 200
2 | CC(C)C[C@H](NC(=O)[C@@H]1CCCN1C(=O)[C@@H]1CCCN1C(=O)[C@H](CO)NC(=O)[C@@H]1CCCN1C(=O)[C@H](CC(C)C)NC(=O)[C@H](Cc1c[nH]cn1)NC(=O)[C@@H](N)CCCNC(=N)N)C(=O)N[C@H](C(=O)N[C@@H](CCC(N)=O)C(=O)O)[C@@H](C)O [Peptide P8] (H-RHLPSPPLTQ-OH; N-terminus and C-terminus assumed) | > 200 | > 200 µM | > 200 | > 200 | > 200 | > 200 | > 200 | > 200 | > 200 | > 200 | > 200 | > 200 | > 200
3 | CC[C@H](C)[C@H](N)C(=O)N[C@@H](C)C(=O)NCC(=O)N1CCC[C@H]1C(=O)N1CCC[C@H]1C(=O)N[C@H](C(=O)N1CCC[C@H]1C(=O)N1CCC[C@H]1C(=O)N[C@@H](CCCNC(=N)N)C(=O)N[C@@H](CCC(N)=O)C(=O)N[C@@H](CO)C(=O)O)C(C)C [Peptide P9] (H-IAGPPVPPRQS-OH) | > 200 | > 200 µM | > 200 | 47 | > 200 | > 200 | > 200 | > 200 | > 200 | > 200 | > 200 | > 200 | > 200
4 | CC[C@H](C)[C@H](NC(=O)[C@H](Cc1c[nH]cn1)NC(=O)[C@@H](N)CCC(N)=O)C(=O)N1CCC[C@H]1C(=O)N[C@@H](CCCCN)C(=O)N[C@@H](CC(C)C)C(=O)N1CCC[C@H]1C(=O)N1CCC[C@H]1C(=O)N[C@@H](CCCCN)C(=O)N[C@H](C(=O)N[C@@H](Cc1ccc(O)cc1)C(=O)O)[C@@H](C)O [Peptide P10] (H-QHIPKLPPKTY-OH; N-terminus and C-terminus assumed) | > 200 | > 200 µM | > 200 | > 200 | > 200 | > 200 | > 200 | > 200 | > 200 | > 200 | > 200 | > 200 | > 200
5 | CC(C)[C@H](N)C(=O)N1CCC[C@H]1C(=O)N[C@H](C(=O)N1CCC[C@H]1C(=O)N1CCC[C@H]1C(=O)N1CCC[C@H]1C(=O)N[C@H](C(=O)N1CCC[C@H]1C(=O)N1CCC[C@H]1C(=O)N[C@@H](CCCNC(=N)N)C(=O)N[C@@H](CCCNC(=N)N)C(=O)N[C@@H](CCCNC(=N)N)C(=O)O)C(C)C)C(C)C [RP1, reference compound] | > 200 | 16.7 µM | 11 | > 200 | > 200 | > 200 | > 200 | 11 | 3.4 | > 200 | > 200 | 39 | > 200
6 | CC(C)[C@H](NC(=O)[C@@H]1CCCN1C(=O)[C@@H]1CCCN1C(=O)[C@H](C)NC(=O)[C@H](CCC(=O)O)NC(=O)[C@H](CS)NC(=O)[C@@H](N)CCCNC(=N)N)C(=O)N1CCC[C@H]1C(=O)N1CCC[C@H]1C(=O)N[C@@H](CCCNC(=N)N)C(=O)N[C@@H](CCCNC(=N)N)C(=O)N[C@@H](CCC(=O)O)C(=O)N[C@@H](CCCNC(=N)N)C(=O)NCC(=O)O [RP2, reference compound] (H-RCEAPPVPPRRERG-OH) | > 200 | 15.5 µM | > 200 | 48 | > 200 | > 200 | > 200 | 20 | 12.9 | > 200 | > 200 | 11 | > 200
